Laboratory results: paper PMC5608804, “Stepwise Evolution Improves Identification of Diverse Peptides Binding to a Protein Target” (Scientific Reports, 2017)

target: T1, streptavidin (Streptomyces avidinii, UniProt P22629); experiment: Cy5-streptavidin binding on HotSpot discovery array, 5-mer L-peptide library; settings: 5-mer L-peptide library array, Cy5-streptavidin; from average of three arrays
T1 construct: purchased GE Healthcare (Little Chalfont, UK)
Summary of the method: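 Array of 2,476,099 5-mer peptides (19 amino acids, no cysteine) with Gly-Ser linkers, probed overnight at 4 °C with 0.5 µg/ml Cy5-streptavidin in Tris pH 7.4 buffer containing casein or BSA plus Tween-20. Cy5 fluorescence read at 635 nm; peptides selected by signal-to-background >4 across three arrays.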

T1 sequence (P22629 25-183): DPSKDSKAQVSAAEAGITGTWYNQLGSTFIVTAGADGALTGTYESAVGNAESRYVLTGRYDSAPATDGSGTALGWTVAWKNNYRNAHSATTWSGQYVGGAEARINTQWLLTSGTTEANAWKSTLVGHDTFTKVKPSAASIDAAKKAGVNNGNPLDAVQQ

Substance | S/B (signal to background ratio)
NDHPM | 32.0
NGHPM | 54.5
NGHPQ | 144.3
NHHPQ | 128.2
NHPQA | 121.8
NHPQG | 118.8
NHPQI | 21.1
NHPQM | 39.3
NHPQN | 138.1
NHPQQ | 42.3
NKHPM | 20.7
NMHPQ | 136.2
NNHPQ | 137.3
NPHPM | 40.3
NRHPM | 48.6
NTHPQ | 133.1
NWHPQ | 184.8
NYHPM | 52.9
NYHPQ | 182.7
PAHPQ | 124.5
PAWAH [L-amino acid 5-mer array peptide] | 50.0
PDHPM | 23.4
PFHPQ | 193.0
PGHPQ | 168.5

Substance | S/B (signal to background ratio)
PHHPQ | 140.8
PHPMS | 30.6
PHPMV | 24.7
PHPQA | 128.7
PHPQI | 22.5
PHPQN | 138.6
PHPQQ | 53.1
PHPQT | 24.1
PHPQW | 23.8
PHPQY | 41.4
PIHPM | 24.8
PKHPM | 19.4
PLHPM | 39.0
PMHPQ | 135.3
PNHPQ | 144.0
PPHPM | 53.6
PPHPQ | 150.0
PQHPQ | 136.1
PRHPQ | 161.5
PSHPQ | 136.6
PTHPQ | 130.7
PVHPM | 27.2
PWHPQ | 182.5
PYHPM | 54.5

Substance | S/B (signal to background ratio)
PYHPQ | 151.0
QFHPQ | 180.1
QGHPM | 56.0
QHHPQ | 136.3
QHPQA | 138.2
QHPQG | 122.5
QHPQH | 52.4
QHPQM | 40.0
QHPQN | 143.0
QMHPQ | 124.9
QNHPQ | 135.0
QPHPM | 52.0
QQHPM | 43.3
QQHPQ | 136.6
QRHPM | 57.2
QRHPQ | 154.5
QSHPM | 42.7
QSHPQ | 135.3
QWHPQ | 173.7
QYHPQ | 195.0
RAHPQ | 147.2
RDHPQ | 132.4
RFHPQ | 161.9
RGHPQ | 135.0

Substance | S/B (signal to background ratio)
RHHPM | 53.8
RHHPQ | 148.9
RHPMS | 30.8
RHPQA | 134.8
RHPQD | 36.1
RHPQF | 125.0
RHPQG | 124.2
RHPQQ | 43.6
RHPQW | 20.3
RHPQY | 41.5
RKHPQ | 46.9
RLHPM | 33.8
RLHPQ | 137.3
RMHPM | 37.9
RMHPQ | 119.1
RNHPM | 54.6
RNHPQ | 136.2
RPHPQ | 133.3
RQHPM | 55.1
RQHPQ | 139.3
RRHPM | 31.6

same assay, conditions: average of three arrays, L-peptide 5-mer library

Substance | S/B (signal to background ratio)
PAWAH [L-amino acid 5-mer array peptide] | 50.0
